What follows are compounds tested against T1, human CRTH2 (Homo sapiens, UniProt Q9Y5Y4) (assay: [35S]GTPγS binding assay (SPA) on membranes from CHO-K1 cells stably expressing human CRTH2, stimulated with 60 nM DHK-PGD2). Conditions: potency class symbols; Table 2; read-out: CRTH2 hGTPγS IC50.
T1 construct: expressed in transfected cells
T1 sequence (Q9Y5Y4 1-395): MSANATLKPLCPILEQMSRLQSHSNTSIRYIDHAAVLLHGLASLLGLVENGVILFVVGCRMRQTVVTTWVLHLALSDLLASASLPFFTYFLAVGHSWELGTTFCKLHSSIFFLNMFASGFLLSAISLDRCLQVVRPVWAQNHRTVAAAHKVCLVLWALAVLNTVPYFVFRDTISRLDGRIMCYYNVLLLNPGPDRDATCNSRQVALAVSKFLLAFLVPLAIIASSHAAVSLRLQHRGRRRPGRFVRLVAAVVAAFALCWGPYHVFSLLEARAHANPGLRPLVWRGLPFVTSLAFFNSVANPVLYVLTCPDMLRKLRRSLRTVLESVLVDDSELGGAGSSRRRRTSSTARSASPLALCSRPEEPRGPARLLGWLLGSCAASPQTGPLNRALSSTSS
Format: biochemical
In short: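 Membranes (4 μg) from CHO-K1 cells stably expressing human CRTH2 were incubated with compounds, 60 nM DHK-PGD2, 500 pM [35S]GTPγS and 10 μM GDP plus WGA SPA beads. Buffer was 20 mM HEPES pH 7.4, 10 mM MgCl2, 300 mM NaCl, 0.2% BSA, with 1% DMSO. Incubation ran 2 h at ambient temperature, with SPA scintillation read 4 h after centrifugation.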

**Q.** `CN(Cc1ccc(OCC(=O)O)c(-c2cc(F)ccc2F)c1)S(=O)(=O)c1ccc(F)cc1` [Example 118, 2-(2,5-difluorophenyl)-4-((4-fluoro-N-methylphenylsulfonamido)methyl)phenoxyacetic acid] was tested. Which IC50 did it give?
**A.** 100 to 1000 nM

**Q.** `CN(Cc1ccc(OCC(=O)O)c(-c2cncc(C(F)(F)F)c2)c1)S(=O)(=O)c1ccc(F)cc1` [Example 119, 2-(3-trifluoromethyl-5-pyridinyl)-4-((4-fluoro-N-methylphenylsulfonamido)methyl)phenoxyacetic acid] was tested. Which IC50 did it give?
**A.** 100 to 1000 nM

**Q.** For `CN(Cc1ccc(OCC(=O)O)c(-c2cccc(C(F)(F)F)c2)c1)S(=O)(=O)c1ccc(C#N)cc1` [Example 120, 2-(3-trifluoromethylphenyl)-4-((4-cyano-N-methylphenylsulfonamido)methyl)phenoxyacetic acid], which IC50 is on record?
**A.** 100 to 1000 nM

**Q.** With `COc1ccc(S(=O)(=O)N(C)Cc2ccc(OCC(=O)O)c(-c3cccc(C(F)(F)F)c3)c2)cc1` [Example 121, 2-(3-trifluoromethylphenyl)-4-((4-methoxy-N-methylphenylsulfonamido)methyl)phenoxyacetic acid] as the compound, how does the IC50 read?
**A.** 100 to 1000 nM

**Q.** With `CN(Cc1ccc(OCC(=O)O)c(-c2cccc(F)c2F)c1)S(=O)(=O)c1ccc(F)cc1` [Example 122, 2-(2,3-difluorophenyl)-4-((4-fluoro-N-methylphenylsulfonamido)methyl)phenoxyacetic acid] as the compound, how does the IC50 read?
**A.** 100 to 1000 nM

**Q.** Which IC50 does the source give for `CN(Cc1ccc(OCC(=O)O)c(-c2ccc(S(C)(=O)=O)cc2)c1)S(=O)(=O)c1ccc(F)cc1` [Example 124, 2-(4-methylsulfonylphenyl)-4-((4-fluoro-N-methylphenylsulfonamido)methyl)phenoxyacetic acid] here?
**A.** 100 to 1000 nM

**Q.** Which IC50 does the source give for `CN(Cc1ccc(OCC(=O)O)c(-c2cccc(OC(F)(F)F)c2)c1)S(=O)(=O)c1ccc(F)cc1` [Example 125, 2-(3-trifluoromethoxyphenyl)-4-((4-fluoro-N-methylphenylsulfonamido)methyl)phenoxyacetic acid] here?
**A.** 100 to 1000 nM

**Q.** How did the IC50 turn out when `CN(Cc1ccc(OCC(=O)O)c(-c2cccc(C(F)(F)F)c2)c1)S(=O)(=O)c1cccc(F)c1` [Example 126, 2-(3-trifluoromethylphenyl)-4-((3-fluoro-N-methylphenylsulfonamido)methyl)phenoxyacetic acid] was run?
**A.** 100 to 1000 nM

**Q.** `CN(Cc1ccc(OCC(=O)O)c(-c2cccc(C(F)(F)F)n2)c1)S(=O)(=O)c1ccc(F)cc1` [Example 127, 2-(6-trifluoromethyl-2-pyridinyl)-4-((4-fluoro-N-methylphenylsulfonamido)methyl)phenoxyacetic acid] was tested. Which IC50 did it give?
**A.** 100 to 1000 nM

**Q.** Which IC50 does the source give for `CN(Cc1ccc(OCC(=O)O)c(-c2ccn3ccnc3c2)c1)S(=O)(=O)c1ccc(F)cc1` [Example 128, 2-(imidazo[1,2-a]pyridin-7-yl)-4-((4-fluoro-N-methylphenylsulfonamido)methyl)phenoxyacetic acid] here?
**A.** 100 to 1000 nM

**Q.** For `Cc1nnc(-c2cccc(-c3cc(CN(C)S(=O)(=O)c4ccc(F)cc4)ccc3OCC(=O)O)c2)o1` [Example 129, 2-(3-(5-methyl-1,3,4-oxadiazol-2-yl)phenyl)-4-((4-fluoro-N-methylphenylsulfonamido)methyl)phenoxyacetic acid], which IC50 is on record?
**A.** 100 to 1000 nM

**Q.** `CN(Cc1ccc(OCC(=O)O)c(-c2cccc(F)c2)c1)S(=O)(=O)c1ccc(F)cc1` [Example 130, 2-(3-fluorophenyl)-4-((4-fluoro-N-methylphenylsulfonamido)methyl)phenoxyacetic acid] was tested. Which IC50 did it give?
**A.** 100 to 1000 nM

**Q.** With `CN(Cc1ccc(OCC(=O)O)c(-c2cccc(C(F)(F)F)c2)c1)S(=O)(=O)c1ccccc1` [Example 131, 2-(3-trifluoromethylphenyl)-4-((N-methylphenylsulfonamido)methyl)phenoxyacetic acid] as the compound, how does the IC50 read?
**A.** 100 to 1000 nM

**Q.** How did the IC50 turn out when `CN(Cc1ccc(OCC(=O)O)c(-c2cccc(O)c2)c1)S(=O)(=O)c1ccc(F)cc1` [Example 132, 2-(3-hydroxyphenyl)-4-((4-fluoro-N-methylphenylsulfonamido)methyl)phenoxyacetic acid] was run?
**A.** 100 to 1000 nM

**Q.** For `COc1cccc(-c2cc(CN(C)S(=O)(=O)c3ccc(F)cc3)ccc2OCC(=O)O)c1` [Example 133, 2-(3-methoxyphenyl)-4-((4-fluoro-N-methylphenylsulfonamido)methyl)phenoxyacetic acid], which IC50 is on record?
**A.** 100 to 1000 nM

**Q.** How did the IC50 turn out when `CN(Cc1ccc(OCC(=O)O)c(-c2cccc(C(F)(F)F)c2)c1)S(=O)(=O)c1ccc(S(C)(=O)=O)cc1` [Example 134, 2-(3-trifluoromethylphenyl)-4-((4-methylsulfonyl-N-methylphenylsulfonamido)methyl)phenoxyacetic acid] was run?
**A.** 100 to 1000 nM

**Q.** Which IC50 does the source give for `CNC(=O)c1cccc(-c2cc(CN(C)S(=O)(=O)c3ccc(F)cc3)ccc2OCC(=O)O)c1` [Example 135, 2-(3-N-methylaminocarbonylphenyl)-4-((4-fluoro-N-methylphenylsulfonamido)methyl)phenoxyacetic acid] here?
**A.** 100 to 1000 nM

**Q.** `CN(Cc1cc(F)c(OCC(=O)O)c(-c2cccc(C#N)c2)c1)S(=O)(=O)c1ccc(F)cc1` [Example 136, 2-(3-cyanophenyl)-4-((4-fluoro-N-methylphenylsulfonamido)methyl)-6-fluorophenoxyacetic acid] was tested. Which IC50 did it give?
**A.** 100 to 1000 nM

**Q.** How did the IC50 turn out when `CN(Cc1ccc(OCC(=O)O)c(-c2cccc(C(F)(F)F)c2)c1)S(=O)(=O)c1cc(F)cc(F)c1` [Example 137, 2-(3-trifluoromethylphenyl)-4-((3,5-difluoro-N-methylphenylsulfonamido)methyl)phenoxyacetic acid] was run?
**A.** 100 to 1000 nM

**Q.** Which IC50 does the source give for `CN(C)C(=O)c1cccc(-c2cc(CN(C)S(=O)(=O)c3ccc(F)cc3)ccc2OCC(=O)O)c1` [Example 138, 2-(3-dimethylaminocarbonylphenyl)-4-((4-fluoro-N-methylphenylsulfonamido)methyl)phenoxyacetic acid] here?
**A.** 100 to 1000 nM

**Q.** With `CN(Cc1cc(F)c(OCC(=O)O)c(-c2cc(F)cc(F)c2)c1)S(=O)(=O)c1ccc(F)cc1` [Example 139, 2-(3,5-difluorophenyl)-4-((4-fluoro-N-methylphenylsulfonamido)methyl)-6-fluorophenoxyacetic acid] as the compound, how does the IC50 read?
**A.** 100 to 1000 nM

**Q.** `CCN(Cc1ccc(OCC(=O)O)c(-c2cccc(C(F)(F)F)c2)c1)S(=O)(=O)c1ccc(F)cc1` [Example 140, 2-(3-trifluoromethylphenyl)-4-((4-fluoro-N-ethylphenylsulfonamido)methyl)phenoxyacetic acid] was tested. Which IC50 did it give?
**A.** 100 to 1000 nM

**Q.** For `COC(=O)c1cccc(-c2cc(CN(C)S(=O)(=O)c3ccc(F)cc3)ccc2OCC(=O)O)c1` [Example 141, 2-(3-methoxycarbonylphenyl)-4-((4-fluoro-N-methylphenylsulfonamido)methyl)phenoxyacetic acid], which IC50 is on record?
**A.** 100 to 1000 nM

**Q.** Which IC50 does the source give for `CN(Cc1ccc(OCC(=O)O)c(-c2cccc(Br)c2)c1)S(=O)(=O)c1ccc(F)cc1` [Example 142, 2-(3-bromophenyl)-4-((4-fluoro-N-methylphenylsulfonamido)methyl)phenoxyacetic acid] here?
**A.** 100 to 1000 nM

**Q.** How did the IC50 turn out when `CN(Cc1ccc(OCC(=O)O)c(-c2cccc(C(F)(F)F)c2)c1)S(=O)(=O)c1cccc2cccnc12` [Example 143, 2-(3-trifluoromethylphenyl)-4-((N-methylquinoline-8-sulfonamido)methyl)phenoxyacetic acid] was run?
**A.** 100 to 1000 nM

**Q.** With `CN(Cc1ccc(OCC(=O)O)c(-c2ccc(F)c(F)c2)c1)S(=O)(=O)c1ccc(F)cc1` [Example 144, 2-(3,4-difluorophenyl)-4-((4-fluoro-N-methylphenylsulfonamido)methyl)phenoxyacetic acid] as the compound, how does the IC50 read?
**A.** 100 to 1000 nM

**Q.** How did the IC50 turn out when `CN(Cc1ccc(OCC(=O)O)c(-c2cccc(C(F)(F)F)c2)c1)S(=O)(=O)c1cccc2ccccc12` [Example 145, 2-(3-trifluoromethylphenyl)-4-((N-methylnaphthalene-1-sulfonamido)methyl)phenoxyacetic acid] was run?
**A.** 100 to 1000 nM

**Q.** Which IC50 does the source give for `COc1ccccc1S(=O)(=O)N(C)Cc1ccc(OCC(=O)O)c(-c2cccc(C(F)(F)F)c2)c1` [Example 146, 2-(3-trifluoromethylphenyl)-4-((2-methoxy-N-methylphenylsulfonamido)methyl)phenoxyacetic acid] here?
**A.** 100 to 1000 nM

**Q.** `CN(Cc1ccc(OCC(=O)O)c(-c2cccnc2)c1)S(=O)(=O)c1ccc(F)cc1` [Example 147, 2-(3-pyridinyl)-4-((4-fluoro-N-methylphenylsulfonamido)methyl)phenoxyacetic acid] was tested. Which IC50 did it give?
**A.** 100 to 1000 nM

**Q.** With `CN(Cc1ccc(OCC(=O)O)c(-c2cccc(C(F)(F)F)c2)c1)S(=O)(=O)c1ccc2ccccc2c1` [Example 148, 2-(3-trifluoromethylphenyl)-4-((N-methylnaphthalene-2-sulfonamido)methyl)phenoxyacetic acid] as the compound, how does the IC50 read?
**A.** 100 to 1000 nM

**Q.** How did the IC50 turn out when `CN(Cc1ccc(OCC(=O)O)c(-c2cccc(C(F)(F)F)c2)c1)S(=O)(=O)c1cccnc1` [Example 149, 2-(3-trifluoromethylphenyl)-4-((N-methylpyridine-3-sulfonamido)methyl)phenoxyacetic acid] was run?
**A.** 100 to 1000 nM

**Q.** For `CN(Cc1ccc(OCC(=O)O)c(-c2cc(F)cc(Cl)c2)c1)S(=O)(=O)c1ccccc1` [Example 150, 2-(3-chloro-5-fluorophenyl)-4-((-N-methylphenylsulfonamido)methyl)phenoxyacetic acid], which IC50 is on record?
**A.** 100 to 1000 nM

**Q.** For `COc1cccc(-c2cc(CN(C)S(=O)(=O)c3ccccc3)ccc2OCC(=O)O)c1` [Example 151, 2-(3-methoxyphenyl)-4-((-N-methylphenylsulfonamido)methyl)phenoxyacetic acid], which IC50 is on record?
**A.** 1000 to 10000 nM

Source: patent publication US8822467B2 (Ligand Pharmaceuticals Inc., priority 2009, dated 2014)
